Patent publication US10495796B2, “Near-infrared cut filter” (AGC INC., priority 2012, dated 2019)

Key:
[1] = Solubility of dye to organic solvent; format: physicochemical; conditions: 50° C., mass % of the dye to the mass of the entire solution; for Solubility to organic solvent: MIBK: methyl isobutyl ketone
Procedure: Regarding the dyes (A11-1) to (A11-10) and (A11-20) to (A11-27) obtained above, solubility to organic solvent was evaluated as follows.
Three kinds of solvents, cyclohexanone, methyl isobutyl ketone (MIBK), toluene, were used as the organic solvent in the solubility test. Note that in Table 3, % is mass % of the dye to the mass of the entire solution. Further, the temperature of each organic solvent in the solubility test was 50° C.

[2] = Absorption characteristics: transmission spectrum of near-infrared absorbing layer of NIR filter (UV-visible spectrophotometer); format: physicochemical
Procedure: Further, the transmittance of the near-infrared absorbing layer can be measured by using an ultraviolet visible light spectrophotometer. For example, when the near-infrared absorbing layer is provided on a glass substrate, the transmittance is calculated by subtracting the transmittance of only the glass substrate. Note that the transmittance of light of the near-infrared absorbing layer refers to, unless otherwise stated, a ratio to light incident from a direction orthogonal to a main surface of a sample, the ratio of this light traveling straight inside the sample and transmitted to an opposite side. Further, when the transmittance is measured by making light incident from a direction other than the direction orthogonal to the main surface of the sample in the measurement of transmittance of light, an angle made by a straight line indicating the direction of the incident light to a line orthogonal to the main surface is called an incident angle.
In the condition (ii-3), the value calculated by nd(B)×(λa−λc) (hereinafter, this value may also be described as “Is value”) is a value to be an index indicating steepness of the absorption curve in the vicinity of the boundary between the visible light region and the near-infrared region with respect to a transmission spectrum of the near-infrared absorbing layer. When this value is 115 or less, the absorption curve in the vicinity of the boundary between the visible light region and the near-infrared region is steep with respect to the near-infrared absorbing layer, which can be said as preferable for the NIR filter.
That is, with respect to the transmission spectrum of the near-infrared absorbing layer, the smaller the difference (λa−λc) between the shortest wavelength λa with transmittance of 1% in the region of 650 nm to 800 nm and the wavelength λc with transmittance of 70% on a shorter wavelength side than the λa, the steeper the absorption curve in the vicinity of the boundary between the visible light region and the near-infrared region. Here, λa−λc also depends on a wavelength width having transmittance of 1% or less (λb−λa; λb is the longest wavelength with transmittance of 1% in the wavelength region of 650 nm to 800 nm). Accordingly, in order to compare and evaluate the steepness of the absorption curve in the above region of the transmission spectrum of the near-infrared absorbing layer, λb−λa is fixed to 30 nm. That is, λb−λa of the near-infrared absorbing layer which the present filter has is not limited to 30 nm.
Further, in the Is value, (λa−λc) is multiplied by the refractive index nd(B) of the transparent resin (B) contained in the near-infrared absorbing layer as a coefficient. This is to standardize the difference in steepness among resins.
Regarding transmittance (%/nm) of the NIR filters 1 to 109 obtained above, transmission spectra were measured and calculated by using an ultraviolet visible light spectrophotometer (U-4100 type spectrophotometer made by Hitachi High-Technologies Corporation). Analysis results of transmission spectra of the near-infrared absorbing layers which the NIR filters have are presented in Table 4, Table 5 and Table 6 for the NIR filters 1 to 25, 26 to 51, 52 to 75, respectively, and are presented in Table 7 and Table 8 for the NIR filters 76 to 94, 95 to 109, respectively. In Table 4 to Table 8, the ratios (parts by mass) of dyes to 100 parts by mass of the transparent resin (B) and film thicknesses of the near-infrared absorbing layers are described together.
Further, conditions of preferred transmission spectra of the near-infrared absorbing layers in the present filter and Is values obtained by the formula: nd(B)×(λa-λc) described in above (ii-3) are described in Table 4 to Table 8 together with λa in the condition (ii-1) and λb-λa in the condition (ii-2). Note that values described in Table 4 to Table 8 are values obtained by subtracting transmittance of a glass plate from transmittance of an NIR filter. […]

[3] = transparent resin acrylic resin BR50, nd(B) 1.56, film thickness 2.3 μm
[4] = transparent resin polycarbonate EP5000, nd(B) 1.63, film thickness 2.4 μm
[5] = transparent resin polycarbonate SP3810, nd(B) 1.63, film thickness 1.0 μm
[6] = transparent resin polycarbonate SP3810, nd(B) 1.63, film thickness 2.8 μm
[7] = transparent resin polycarbonate SP1516, nd(B) 1.60, film thickness 0.9 μm

CCCCC(CC)C(=O)Nc1cc2c(cc1C1=C([O-])C(=c3cc4c(cc3NC(=O)C(CC)CCCC)=[N+](C)C(C)C4(C)C)C1=O)C(C)(C)C(C)N2C (stereo not drawn) [Example A11-2]
Solubility to organic solvent: Cyclohexanone [1]: 10%< mass %
Solubility to organic solvent: MIBK [1]: 10%< mass %
Solubility to organic solvent: Toluene [1]: 5.00% mass %
430 nm to 600 nm Average transmittance [2, 3]: 95%
Is value (nd(B)×(λa-λc)) [2, 3]: 112.4
λa [2, 3]: 689 nm
λa − λc [2, 3]: 72 nm
λb [2, 3]: 719 nm
λb − λa [2, 3]: 30 nm
λc [2, 3]: 617 nm
λmax [2, 3]: 706 nm
430 nm to 600 nm Average transmittance [2, 4]: 96.2%
Is value (nd(B)×(λa-λc)) [2, 4]: 112.6
λa [2, 4]: 694 nm
λa − λc [2, 4]: 69 nm
λb [2, 4]: 724 nm
λb − λa [2, 4]: 30 nm
λc [2, 4]: 625 nm
λmax [2, 4]: 711 nm
430 nm to 600 nm Average transmittance [2, 5]: 96.1%
Is value (nd(B)×(λa-λc)) [2, 5]: 114.4
λa [2, 5]: 694 nm
λa − λc [2, 5]: 70 nm
λb [2, 5]: 724 nm
λb − λa [2, 5]: 30 nm
λc [2, 5]: 624 nm
λmax [2, 5]: 706 nm
430 nm to 600 nm Average transmittance [2, 6]: 95.5%
Is value (nd(B)×(λa-λc)) [2, 6]: 112.8
λa [2, 6]: 694 nm
λa − λc [2, 6]: 69 nm
λb [2, 6]: 724 nm
λb − λa [2, 6]: 30 nm
λc [2, 6]: 625 nm
λmax [2, 6]: 710 nm

CC(CCC(C(=O)Nc1cc2c(cc1C1=C([O-])C(=c3cc4c(cc3NC(=O)C(CCC(C)CC(C)(C)C)C(C)CC(C)(C)C)=[N+](C)C(C)C4(C)C)C1=O)C(C)(C)C(C)N2C)C(C)CC(C)(C)C)CC(C)(C)C (stereo not drawn) [Example A11-4]
Solubility to organic solvent: Cyclohexanone [1]: 10%< mass %
Solubility to organic solvent: MIBK [1]: 10%< mass %
Solubility to organic solvent: Toluene [1]: 10%< mass %
430 nm to 600 nm Average transmittance [2, 3]: 95%
Is value (nd(B)×(λa-λc)) [2, 3]: 110.9
λa [2, 3]: 688 nm
λa − λc [2, 3]: 71 nm
λb [2, 3]: 718 nm
λb − λa [2, 3]: 30 nm
λc [2, 3]: 617 nm
λmax [2, 3]: 705 nm
430 nm to 600 nm Average transmittance [2, 4]: 95.7%
Is value (nd(B)×(λa-λc)) [2, 4]: 112.6
λa [2, 4]: 693 nm
λa − λc [2, 4]: 69 nm
λb [2, 4]: 723 nm
λb − λa [2, 4]: 30 nm
λc [2, 4]: 624 nm
λmax [2, 4]: 709 nm
430 nm to 600 nm Average transmittance [2, 5]: 96.8%
Is value (nd(B)×(λa-λc)) [2, 5]: 112.8
λa [2, 5]: 693 nm
λa − λc [2, 5]: 69 nm
λb [2, 5]: 723 nm
λb − λa [2, 5]: 30 nm
λc [2, 5]: 624 nm
λmax [2, 5]: 705 nm
430 nm to 600 nm Average transmittance [2, 6]: 95.9%
Is value (nd(B)×(λa-λc)) [2, 6]: 111.2
λa [2, 6]: 693 nm
λa − λc [2, 6]: 68 nm
λb [2, 6]: 723 nm
λb − λa [2, 6]: 30 nm
λc [2, 6]: 625 nm
λmax [2, 6]: 709 nm

CC(=O)Nc1cc2c(cc1C1=C([O-])C(=c3cc4c(cc3NC(C)=O)=[N+](C)C(C)C4(C)C)C1=O)C(C)(C)C(C)N2C (stereo not drawn) [Example A11-20, reference compound]
Solubility to organic solvent: Cyclohexanone [1]: <1.0% mass %
Solubility to organic solvent: MIBK [1]: <1.0% mass %
Solubility to organic solvent: Toluene [1]: <1.0% mass %
430 nm to 600 nm Average transmittance [2, 3]: 93.1%
Is value (nd(B)×(λa-λc)) [2, 3]: 142.1
λa [2, 3]: 687 nm
λa − λc [2, 3]: 91 nm
λb [2, 3]: 717 nm
λb − λa [2, 3]: 30 nm
λc [2, 3]: 596 nm
λmax [2, 3]: 704 nm
430 nm to 600 nm Average transmittance [2, 4]: 95.6%
Is value (nd(B)×(λa-λc)) [2, 4]: 122.4
λa [2, 4]: 693 nm
λa − λc [2, 4]: 68 nm
λb [2, 4]: 723 nm
λb − λa [2, 4]: 30 nm
λc [2, 4]: 618 nm
λmax [2, 4]: 710 nm
430 nm to 600 nm Average transmittance [2, 7]: 94.5%
Is value (nd(B)×(λa-λc)) [2, 7]: 126.4
λa [2, 7]: 690 nm
λa − λc [2, 7]: 79 nm
λb [2, 7]: 720 nm
λb − λa [2, 7]: 30 nm
λc [2, 7]: 611 nm
λmax [2, 7]: 706 nm
430 nm to 600 nm Average transmittance [2, 5]: 93.6%
Is value (nd(B)×(λa-λc)) [2, 5]: 129.1
λa [2, 5]: 693 nm
λa − λc [2, 5]: 79 nm
λb [2, 5]: 723 nm
λb − λa [2, 5]: 30 nm
λc [2, 5]: 614 nm
λmax [2, 5]: 710 nm
430 nm to 600 nm Average transmittance [2, 6]: 95.0%
Is value (nd(B)×(λa-λc)) [2, 6]: 124.2
λa [2, 6]: 694 nm
λa − λc [2, 6]: 76 nm
λb [2, 6]: 724 nm
λb − λa [2, 6]: 30 nm
λc [2, 6]: 618 nm
λmax [2, 6]: 710 nm

CCCCCC(=O)Nc1cc2c(cc1C1=C([O-])C(=c3cc4c(cc3NC(=O)CCCCC)=[N+](C)C(C)C4(C)C)C1=O)C(C)(C)C(C)N2C (stereo not drawn) [Example A11-22, reference compound]
Solubility to organic solvent: Cyclohexanone [1]: <1.0% mass %
Solubility to organic solvent: MIBK [1]: <1.0% mass %
Solubility to organic solvent: Toluene [1]: 1.00% mass %
430 nm to 600 nm Average transmittance [2, 7]: 95.3%
Is value (nd(B)×(λa-λc)) [2, 7]: 126.4
λa [2, 7]: 691 nm
λa − λc [2, 7]: 79 nm
λb [2, 7]: 721 nm
λb − λa [2, 7]: 30 nm
λc [2, 7]: 612 nm
λmax [2, 7]: 707 nm

CCCCCCCC(=O)Nc1cc2c(cc1C1=C([O-])C(=c3cc4c(cc3NC(=O)CCCCCCC)=[N+](C)C(C)C4(C)C)C1=O)C(C)(C)C(C)N2C (stereo not drawn) [Example A11-24, reference compound]
Solubility to organic solvent: Cyclohexanone [1]: 5.00% mass %
Solubility to organic solvent: MIBK [1]: 1.00% mass %
Solubility to organic solvent: Toluene [1]: 5.00% mass %
430 nm to 600 nm Average transmittance [2, 3]: 93.7%
Is value (nd(B)×(λa-λc)) [2, 3]: 132.7
λa [2, 3]: 688 nm
λa − λc [2, 3]: 85 nm
λb [2, 3]: 718 nm
λb − λa [2, 3]: 30 nm
λc [2, 3]: 603 nm
λmax [2, 3]: 705 nm
430 nm to 600 nm Average transmittance [2, 4]: 95.9%
Is value (nd(B)×(λa-λc)) [2, 4]: 120.8
λa [2, 4]: 694 nm
λa − λc [2, 4]: 69 nm
λb [2, 4]: 724 nm
λb − λa [2, 4]: 30 nm
λc [2, 4]: 620 nm
λmax [2, 4]: 710 nm
430 nm to 600 nm Average transmittance [2, 5]: 95.2%
Is value (nd(B)×(λa-λc)) [2, 5]: 122.6
λa [2, 5]: 693 nm
λa − λc [2, 5]: 75 nm
λb [2, 5]: 723 nm
λb − λa [2, 5]: 30 nm
λc [2, 5]: 618 nm
λmax [2, 5]: 710 nm
430 nm to 600 nm Average transmittance [2, 6]: 95.4%
Is value (nd(B)×(λa-λc)) [2, 6]: 119.3
λa [2, 6]: 694 nm
λa − λc [2, 6]: 73 nm
λb [2, 6]: 724 nm
λb − λa [2, 6]: 30 nm
λc [2, 6]: 621 nm
λmax [2, 6]: 710 nm
